# According to patent publication US20170290336A1, “Isolated Bacterial Strain of the Genus Burkholderia and Pesticidal Metabolites Therefrom” (Marrone Bio Innovations, Inc., priority 2010, published 2017):
# Assays:
# B. cepacia isolates = details: 366 B. cepacia isolates; cited from earlier work
# lettuce = experiment: 96 well plate lettuce seeding assay; format: in vivo; details: bioassay-guided isolation
# Method: The culture broth derived from the 10-L fermentation Burkholderia (A396) in Hy soy growth medium is extracted with Amberlite XAD-7 resin (Asolkar et al., 2006) by shaking the cell suspension with resin at 225 rpm for two hours at room temperature. The resin and cell mass are collected by filtration through cheesecloth and washed with DI water to remove salts. The resin, cell mass, and cheesecloth are then soaked for 2 h in acetone after which the acetone is filtered and dried under vacuum using rotary evaporator to give the crude extract. The crude extract is then fractionated by using reversed-phase C18 vacuum liquid chromatography (H2O/CH3OH; gradient […] to 0:100%) to give 10 fractions. These fractions are then concentrated to dryness using rotary evaporator and the resulting dry residues are screened for biological activity using 96 well plate lettuce seeding assay. The active fractions are then subjected to reversed phase HPLC (Spectra System P4000 (Thermo Scientific) to give pure compounds, which are then screened in above mentioned bioassays to locate/identify the active compounds. To confirm the identity of the compound, additional spectroscopic data such as LC/MS and NMR is recorded.
# [1] = system: barnyard grass (Echinochloa crus-galli) seedlings; experiment: Herbicidal laboratory assay, 96-well plate; format: in vivo; details: after five days; for Grass seedlings (% Mortality): 10 μg/mL concentration per well
# Method: The herbicidal activity of the active compound FR90128 (MW 540) is tested in a laboratory assay using one-week old barnyard grass (Echinochloa crus-galli) seedlings in a 96-well plate platform. One grass seedling was placed in each of the wells containing 99 microliters of DI water. One microliter aliquot of the pure compound in ethanol (10 mg/mL) is added into each well, and the plate is sealed with a lid. One microliter of ethanol in 99 microliters of water is used as a negative control. The treatments were done in eight replicates, and the sealed plate is incubated in a greenhouse under artificial lights (12 hr light/dark cycle). After five days, the results are read.
# (§1) The herbicidal activity of templamide A, B, FR901465 and FR90128 are tested in a laboratory assay using one-week old barnyard grass (Echinochloa crus-galli) and lettuce (Lactuca sativa L.) seedlings in a 96-well plate platform. One seedling is placed in each of the wells containing 99 microliters of DI water. Into each well, a one microliter aliquot of the pure compound in ethanol (10 mg/mL) is added, and the plate is sealed with a lid. One microliter of ethanol in 99 microliters of water is used as a negative control. The treatments are done in eight replicates, and the sealed plate is incubated in a greenhouse under artificial lights (12 hr light/dark cycle). After five days, the results are read. […] The herbicidal activity of templamide A against lettuce seedlings is slightly lower than for the grass. On the other hand, templamide B provides a better (100%) control of lettuce seedlings (used as a model system for broadleaf weeds) than templamide A (Table 11).
# [2] = system: lettuce (Lactuca sativa L.) seedlings; experiment: Herbicidal laboratory assay, 96-well plate; format: in vivo; details: 10 μg/mL concentration per well, after five days
# Method: as §1
# [3] = system: 1st instar Beet Army Worm (Spodoptera exigua); experiment: 96-well diet overlay assay; format: in vivo; details: 10 μg/mL concentration per well, 100 μl on diet, 6 days at 26° C.; for mortality at 10 µg/mL: Spodoptera exigua, 144 h
# Method: The insecticidal activity of templamide A, B, FR901465 and FR90128 are tested in a laboratory assay using a 96-well diet overlay assay with ^1st instar Beet Armyworm larvae using microtiter plates with 200 μl of solid, artificial Beet Armyworm diet in each well. One hundred (100) μl of each test sample is pipetted on the top of the diet (one sample in each well), and the sample is let dry under flowing air until the surface is dry. Each sample was tested in six replicates, and water and a commercial Bt (B. thuringiensis) product are used as negative and positive controls, respectively. One first instar larvae of the test insect (Beet armyworm—Spodoptera exiqua) was placed in each well, and the plate was covered with plastic cover with airholes. The plates with insects were incubated at 26° C. for 6 days with daily mortality evaluations. Based on the results presented in Table 12, templamide A and B results in 40% and 80% mortality, respectively.
# Burkholderia A396 = experiment: Antibiotic susceptibility, antibiotic disks on Muller-Hinton medium; format: cell-based, Burkholderia sp. A396; details: 72-hour incubation at 25° C.
# Method: Antibiotic susceptibility of Burkholderia A396 is tested using antibiotic disks on Muller-Hinton medium as described in PML Microbiological's technical data sheet #535.
# B. cepacia complex = details: 2,621 strains in B. cepacia complex from cystic fibrosis patients; cited from earlier work
# [4] = system: green peach aphid (Myzus persicae); experiment: Sucking insect test in vivo on mustard plants; details: positive control (Avid) sprayed; 10 aphids at Day 0
# Method: The in vivo efficacy of the filtered whole cell broth is tested in a plant assay with mustard plants and green peach aphid (Myzus persicae) as the test insect. Approximately one-month-old Florida Broadleaf mustard (Brassica sp.) plants are sprayed with two different concentrations (1× and 0.5×) of the filter sterilized whole cell broth of Burkholderia sp. using a Paasche airbrush. Water and a commercial product of avermectin (Avid) are used as negative and positive controls, respectively. The plants are allowed to dry on the benchtop, after which they are placed in a 6-cup plastic container with a lid with airholes. Ten aphids at various developmental stages are placed on each test plant, and the plants are incubated under growth lamps for 7 days at 25° C. Daily evaluations for the number of aphids on each plant (summarized in table Table 8 below) are made and recorded in a notebook.
# Botrytis cinerea = experiment: In vitro PDA plate assay, filter paper disks; format: cell-based; details: 5 days
# Method: (§2) Fungicidal activity of FR90128 (MW 540) against three plant pathogenic fungi (Botrytis cinerea, Phytophtora sp., Monilinia fructicola) is tested in an in vitro PDA (potato dextrose agar) plate assay. Plates are inoculated with the fungus using a plug method. After the fungus had established and started to grow on the growth medium, eight sterile filter paper disks are placed on each plate about 1 cm from the edge in a circle. Ten microliters of ethanol solution containing 20, 15, 10, 7.5, 5, 2.5 1.25 mg FR90128/mL is added into filter paper disks, and the solution is left to evaporate. One disk imbedded with 10 μL of pure ethanol is used as a negative control. The assay is done with three replicates. Plates are incubated at room temperature for 5 days, after which the fungicidal activity is recorded by measuring the inhibition zone around each filter paper disk corresponding to different concentrations of FR90128.
# Monilinia fructicola = experiment: In vitro PDA plate assay, filter paper disks; format: cell-based; details: 10 μL of 1.25-20 mg/mL on disks; 5 days
# Method: as §2
# Phytophtora sp. = experiment: In vitro PDA plate assay, filter paper disks; format: cell-based; details: 5 days
# Method: as §2
# [5] = 10 μL of 1.25-20 mg/mL on disks
compound,measurement,setting,value
CN(C)[C@@H]1C(O)=C(C(N)=O)C(=O)[C@@]2(O)C(O)=C3C(=O)c4c(O)cccc4[C@@](C)(O)[C@H]3C[C@@H]12 [Tetracycline],resistance of isolates (in words),B. cepacia isolates,most of them are resistant
templazole B,herbicidal activity of pure compound (in words),lettuce,herbicidally active
CCC(=O)OC(C)/C=C\C(=O)NC1CC(C)C(C/C=C(C)/C=C/C2OC(C)(O)C(O)C3(CO3)C2O)OC1C (centres unmarked) [FR901465],Grass seedlings (% Mortality),[1],88%
same,Lettuce seedlings (% Mortality),[2],100%
same,(% Mortality),[3],50%
COC(=O)c1nc(CC(C)C)oc1-c1c[nH]c2ccccc12 [templazole A],herbicidal activity of pure compound (in words),lettuce,active
CCN1CCN(C(=O)N[C@@H](C(=O)N[C@@H]2C(=O)N3[C@@H]2SC(C)(C)[C@@H]3C(=O)O)c2ccccc2)C(=O)C1=O [Piperacillin],Susceptibility of Burkholderia A396 (in words),Burkholderia A396,susceptible
O=C(N[C@H](CO)[C@H](O)c1ccc([N+](=O)[O-])cc1)C(Cl)Cl [Chloramphenicol],Susceptibility of Burkholderia A396 (in words),Burkholderia A396,susceptible
same,strains resistant,B. cepacia complex,85%
same,strains susceptible,B. cepacia complex,15%
same,resistance of isolates (in words),B. cepacia isolates,most of them are resistant
CO/N=C(\C(=O)N[C@@H]1C(=O)N2C(C(=O)O)=C(COC(N)=O)CS[C@H]12)c1ccco1 [Cefuroxime],resistance of isolates (in words),B. cepacia isolates,most of them are resistant
C[C@@H](O)[C@H]1C(=O)N2C(C(=O)O)=C(SCCN=CN)C[C@H]12 [Imipenem],Susceptibility of Burkholderia A396 (in words),Burkholderia A396,susceptible
same,strains susceptible,B. cepacia complex,7%
same,resistance of isolates (in words),B. cepacia isolates,most of them are resistant
CCC(=O)OC(C)/C=C\C(=O)NC1CC(C)C(C/C=C(C)/C=C/C2OC(C)(O)C(O)C3(CO3)C2O)OC1C (centres unmarked) [Templamide B],Grass seedlings (% Mortality),[1],0%
same,Lettuce seedlings (% Mortality),[2],75%
same,Lettuce seedlings (% Mortality),[2]; listed as templamide B,100%
same,(% Mortality),[3],80%
NC[C@H]1O[C@H](O[C@H]2[C@H](O)[C@@H](O[C@H]3O[C@H](CO)[C@@H](O)[C@H](N)[C@H]3O)[C@H](N)C[C@@H]2N)[C@H](O)[C@@H](O)[C@@H]1O [Kanamycin],Susceptibility of Burkholderia A396 (in words),Burkholderia A396,susceptible
O=C(O)c1cn(C2CC2)c2cc(N3CCNCC3)c(F)cc2c1=O [Ciprofloxacin],Susceptibility of Burkholderia A396 (in words),Burkholderia A396,susceptible
same,strains susceptible,B. cepacia complex,5%
same,resistance of isolates (in words),B. cepacia isolates,most of them are resistant
Cc1cc(NS(=O)(=O)c2ccc(N)cc2)no1 [sulphametoxacole],resistance of isolates (in words),B. cepacia isolates,most of them are resistant
CC[C@H](C)[C@H]1O[C@]2(C=C[C@@H]1C)C[C@@H]1C[C@@H](C/C=C(\C)[C@@H](O[C@H]3C[C@H](OC)[C@@H](O[C@H]4C[C@H](OC)[C@@H](O)[C@H](C)O4)[C@H](C)O3)[C@@H](C)/C=C/C=C3\CO[C@@H]4[C@H](O)C(C)=C[C@@H](C(=O)O1)[C@]34O)O2 [Avermectin],# live aphids Day 2,[4],0
same,# live aphids Day 4,[4],0
same,# live aphids Day 7,[4],0
CCC(=O)OC(C)/C=C\C(=O)NC1CC(C)C(C/C=C(C)/C=C/C2OC(C)(O)C(O)C(O)(CO)C2O)OC1C (centres unmarked) [Templamide A],mortality at 10 µg/mL,[3],40%
C/C=C1\NC(=O)C2CSSCC/C=C/C(CC(=O)NC(C(C)C)C(=O)N2)OC(=O)C(C(C)C)NC1=O (centres unmarked) [FR90128],state of grass seedlings (in words),"[1]; 1 microliter of 10 mg/mL in ethanol added to 99 microliters water, all eight wells",dead with no green tissue left
same,mortality at 10 µg/mL,[3],90%
same,effect on hyphal growth of Botrytis (in words),Botrytis cinerea; [5],effective in controlling the hyphal growth
same,"threshold concentration for inhibition, Botrytis",Botrytis cinerea; 10 μL per filter paper disk,10 mg/mL
same,effect on the growth of Monilinia (in words),Monilinia fructicola,no effect
same,effect on hyphal growth of Phytophtora (in words),Phytophtora sp.; [5],effective in controlling the hyphal growth
same,"threshold concentration for inhibition, Phytophtora",Phytophtora sp.; 10 μL per filter paper disk,1.25 mg/mL
